In this assay the target is IRAK4 (Homo sapiens (Human), UniProt Q9NWZ3). The assay can be described thus: IRAK4 kinase activity, IMAP fluorescence polarization assay. Format: biochemical. The settings on record: 100 μM ATP. The method in brief: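 Fluorescence polarization (IMAP nanoparticle binding of phosphopeptide) reports activity after a 30 min, 25 °C reaction. Conditions: 100 μM ATP, 0.5 nM GST-IRAK4, 100 nM fluorescent peptide, 10 mM Tris pH 7.2, 1 mM MgCl2, 1 mM DTT, 0.01% Tween 20.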
In general terms: Polarisation of emitted light reports the rotation of a fluorescent probe.

Setting [1] is: 0.5 nM GST tagged IRAK4, read-out: IRAK4 IC50.

Structures are written as SMILES. Where a name gives a salt, the structure may show the parent alone. Read-outs that look alike come from different tables or passages of the source.

Sequence of IRAK4 (Q9NWZ3 whole entry): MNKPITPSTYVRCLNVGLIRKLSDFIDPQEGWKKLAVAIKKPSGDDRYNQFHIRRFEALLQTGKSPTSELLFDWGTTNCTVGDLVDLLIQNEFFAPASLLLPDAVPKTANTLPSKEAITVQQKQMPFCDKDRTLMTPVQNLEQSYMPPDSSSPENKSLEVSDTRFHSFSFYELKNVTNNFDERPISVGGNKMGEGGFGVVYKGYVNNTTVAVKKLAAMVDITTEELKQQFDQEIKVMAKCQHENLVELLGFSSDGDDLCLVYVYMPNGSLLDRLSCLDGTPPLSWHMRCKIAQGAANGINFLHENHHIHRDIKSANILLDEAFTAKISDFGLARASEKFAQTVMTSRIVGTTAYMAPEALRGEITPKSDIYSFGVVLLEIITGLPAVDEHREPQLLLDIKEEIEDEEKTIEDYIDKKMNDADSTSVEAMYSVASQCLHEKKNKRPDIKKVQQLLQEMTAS

As usually defined, the IC50 is the concentration needed to halve the response being measured. Turning to `O=c1[nH]c(N2CCC3CCCCC3C2)nc(N[C@@H]2CCCNC2)c1-c1nc2ccccc2s1` (stereo partly drawn) [Example 313, 5-(1,3-benzothiazol-2-yl)-(decahydroisoquinolin-2-yl)-6-[[(3R)piperidin-3-yl]amino]-3,4-dihydropyrimidin-4-one; trifluoroacetic acid], the IC50 (read-out: IC50) amounted to 330 nM.
`CC1CCCCN1c1nc(N[C@@H]2CCCNC2)c(-c2nc3ccccc3s2)c(=O)[nH]1` (stereo partly drawn) [Example 314]: the IC50 (read-out: IC50) stood at 280 nM.
Same read-out and setting: as for `O=c1[nH]c(N2CC[C@@H](O)C2)nc(N[C@@H]2CCCNC2)c1-c1nc2ccccc2s1` [Example 315], the figure is 17 nM; as for `CC(=O)N1CCN(c2nc(N[C@@H]3CCCNC3)c(-c3nc4ccccc4s3)c(=O)[nH]2)CC1` [Example 316, 2-(4-acetylpiperazin-1-yl)-5-(1,3-benzothiazol-2-yl)-6-[[(3R)-piperidin-3-yl]amino]-3,4-dihydropyrimidin-4-one], 450 nM.
On to `O=c1[nH]c(N2CC3(COC3)C2)nc(N[C@@H]2CCCNC2)c1-c1nc2ccccc2s1` [Example 317, 5-(1,3-benzothiazol-2-yl)-2-[2-oxa-6-azaspiro[3.3]heptan-6-yl]-6-[[(3R)-piperidin-3-yl]amino]-3,4-dihydropyrimidin-4-one], for which the IC50 (read-out: IC50) was determined as 25 nM.
For the compound `NC(=O)C1CCN(c2nc(N[C@@H]3CCCNC3)c(-c3nc4ccccc4s3)c(=O)[nH]2)CC1` [Example 318, 1-[5-(1,3-benzothiazol-2-yl)-6-oxo-4-[[(3R)-piperidin-3-yl]amino]-1,6-dihydropyrimidin-2-yl]piperidine-4-carboxamide hydrochloride], where the note is “read-out: IC50”, the IC50 was 74 nM.
`CC1(c2ccc(Cl)cc2)CN(c2nc(N[C@@H]3CCCNC3)c(-c3nc4ccccc4s3)c(=O)[nH]2)CCO1` (stereo partly drawn) [Example 319, 5-(benzo[d]thiazol-2-yl)-2-(2-(4-chlorophenyl)-2-methylmorpholino)-6-((R)-piperidin-3-ylamino)pyrimidin-4(3H)-one hydrochloride]: the IC50 (read-out: IC50) came out at 2500 nM.
With `O=C(O)C1CN(c2nc(N[C@@H]3CCCNC3)c(-c3nc4ccccc4s3)c(=O)[nH]2)CCO1` (stereo partly drawn) [Example 320, 4-[5-(1,3-benzothiazol-2-yl)-6-oxo-4-[[(3R)-piperidin-3-yl]amino]-1,6-dihydropyrimidin-2-yl]morpholine-2-carboxylic acid], the IC50 (read-out: IC50) is 250 nM.
Turning to `CCOC(=O)C1CN(c2nc(N[C@@H]3CCCNC3)c(-c3nc4ccccc4s3)c(=O)[nH]2)CCO1` (stereo partly drawn) [Example 321, ethyl 4-[5-(1,3-benzothiazol-2-yl)-6-oxo-4-[[(3R)-piperidin-3-yl]amino]-1,6-dihydropyrimidin-2-yl]morpholine-2-carboxylate; trifluoroacetic acid], under “read-out: IC50”, the IC50 is 180 nM.
As to `NC1CCN(c2nc(N[C@@H]3CCCNC3)c(-c3nc4ccccc4s3)c(=O)[nH]2)CC1` [Example 322, 2-(4-aminopiperidin-1-yl)-5-(1,3-benzothiazol-2-yl)-6-[[(3R)-piperidin-3-yl]amino]-3,4-dihydropyrimidin-4-one; trifluoroacetic acid], the IC50 (read-out: IC50) turned out to be 240 nM.
The same measure, in the same setting: next, `O=C(NC1CCN(c2nc(N[C@@H]3CCCNC3)c(-c3nc4ccccc4s3)c(=O)[nH]2)CC1)OCc1ccccc1` [Example 323, Benzyl N-[1-[5-(1,3-benzothiazol-2-yl)-6-oxo-4-[[(3R)-piperidin-3-yl]amino]-1,6-dihydropyrimidin-2-yl]piperidin-4-yl]carbamate trifluoroacetic acid]: 100 nM.
Same read-out and setting: as for `O=c1[nH]c(N2CCC3(CCN(c4ncccn4)C3)C2)nc(N[C@@H]2CCCNC2)c1-c1nc2ccccc2s1` (stereo partly drawn) [Example 324, 5-(1,3-benzothiazol-2-yl)-6-[[(3R)-piperidin-3-yl]amino]-2-[7-(pyrimidin-2-yl)-2,7-diazaspiro[4.4]nonan-2-yl]-3,4-dihydropyrimidin-4-one trifluoroacetic acid], the figure is 12 nM; as for `CN1CCC2(CCN(c3nc(N[C@@H]4CCCNC4)c(-c4nc5ccccc5s4)c(=O)[nH]3)C2)C1` (stereo partly drawn) [Example 325, 5-(1,3-benzothiazol-2-yl)-2-[7-methyl-2,7-diazaspiro[4.4]nonan-2-yl]-6-[[(3R)-piperidin-3-yl]amino]-3,4-dihydropyrimidin-4-one], 24 nM; as for `CC(=O)N1CCC2(CCN(c3nc(N[C@@H]4CCCNC4)c(-c4nc5ccccc5s4)c(=O)[nH]3)C2)C1` (stereo partly drawn) [Example 326, 2-[7-acetyl-2,7-diazaspiro[4.4]nonan-2-yl]-5-(1,3-benzothiazol-2-yl)-6-[[(3R)-piperidin-3-yl]amino]-3,4-dihydropyrimidin-4-one], 13 nM.
On the same count and under the same terms, as for `O=c1[nH]c(N2CCC3(CCN(Cc4ccccc4)C3)C2)nc(N[C@@H]2CCCNC2)c1-c1nc2ccccc2s1` (stereo partly drawn) [Example 327, 5-(1,3-benzothiazol-2-yl)-2-[7-benzyl-2,7-diazaspiro[4.4]nonan-2-yl]-6-[[(3R)-piperidin-3-yl]amino]-3,4-dihydropyrimidin-4-one; trifluoroacetic acid], the figure is 27 nM; as for `O=c1[nH]c(N2CCC3(CCN(S(=O)(=O)c4ccccc4)C3)C2)nc(N[C@@H]2CCCNC2)c1-c1nc2ccccc2s1` (stereo partly drawn) [Example 328], 23 nM; as for `COc1ccc(N2CCC3(CCN(c4nc(N[C@@H]5CCCNC5)c(-c5nc6ccccc6s5)c(=O)[nH]4)C3)C2)cc1` (stereo partly drawn) [Example 330, 5-(1,3-benzothiazol-2-yl)-2-[7-(4-methoxyphenyl)-2,7-diazaspiro[4.4]nonan-2-yl]-6-[[(3R)-piperidin-3-yl]amino]-3,4-dihydropyrimidin-4-one], 21 nM.
On to `O=c1[nH]c(N2CCC3(CCN(c4ccc(Cl)cc4)C3)C2)nc(N[C@@H]2CCCNC2)c1-c1nc2ccccc2s1` (stereo partly drawn) [Example 331, 5-(1,3-benzothiazol-2-yl)-2-[7-(4-chlorophenyl)-2,7-diazaspiro[4.4]nonan-2-yl]-6-[[(3R)-piperidin-3-yl]amino]-3,4-dihydropyrimidin-4-one trifluoroacetic acid], for which the IC50 (read-out: IC50) was 47 nM.
Turning to `O=c1[nH]c(N2CCC(NCc3ccccc3)CC2)nc(N[C@@H]2CCCNC2)c1-c1nc2ccccc2s1` [Example 332, 5-(1,3-benzothiazol-2-yl)-2-[4-(benzylamino)piperidin-1-yl]-6-[[(3R)-piperidin-3-yl]amino]-3,4-dihydropyrimidin-4-one trifluoroacetic acid], under “read-out: IC50”, the 50% inhibitory concentration (IC50) is 110 nM.
`CC(=O)NC1CCN(c2nc(N[C@@H]3CCCNC3)c(-c3nc4ccccc4s3)c(=O)[nH]2)CC1` [Example 333, N-[1-[5-(1,3-benzothiazol-2-yl)-6-oxo-4-[[(3R)-piperidin-3-yl]amino]-1,6-dihydropyrimidin-2-yl]piperidin-4-yl]acetamide trifluoroacetic acid]: the IC50 (read-out: IC50) amounted to 94 nM.
On the same count and under the same terms, next, `O=c1[nH]c(N2CCC3(CCN(c4ccccc4)C3)C2)nc(N[C@@H]2CCCNC2)c1-c1nc2ccccc2s1` (stereo partly drawn) [Example 334, 5-(1,3-benzothiazol-2-yl)-2-[7-phenyl-2,7-diazaspiro[4.4]nonan-2-yl]-6-[[(3R)-piperidin-3-yl]amino]-3,4-dihydropyrimidin-4-one]: 21 nM.
Turning to `O=c1[nH]c(N2CCOCC2)nc(N[C@@H]2CCCNC2)c1-c1nc2cc(C(F)(F)F)ccc2s1` [Example 337, 2-(morpholin-4-yl)-6-[[(3R)-piperidin-3-yl]amino]-5-[5-(trifluoromethyl)-1,3-benzothiazol-2-yl]-3,4-dihydropyrimidin-4-one], the IC50 under setting [1] was 70 nM.
Same read-out and setting: next, `O=c1[nH]c(N2CCOCC2)nc(N[C@@H]2CCCNC2)c1-c1nc2cccc(C(F)(F)F)c2s1` [Example 338, (R)-2-morpholino-6-(piperidin-3-ylamino)-5-(7-(trifluoromethyl)benzo[d]thiazol-2-yl)pyrimidin-4(3H)-one]: 520 nM; `O=c1[nH]c(N2CCOCC2)nc(N[C@@H]2CCCNC2)c1-c1nc2cccc(Cl)c2s1` [Example 339, (R)-5-(7-chlorobenzo[d]thiazol-2-yl)-2-morpholino-6-(piperidin-3-ylamino)pyrimidin-4(3H)-one]: 180 nM.
`Cc1cccc2nc(-c3c(N[C@@H]4CCCNC4)nc(N4CCOCC4)[nH]c3=O)sc12` [Example 340, (R)-5-(7-methylbenzo[d]thiazol-2-yl)-2-morpholino-6-(piperidin-3-ylamino)pyrimidin-4(3H)-one]: the IC50 under setting [1] amounted to 580 nM.
Same read-out and setting: as for `Cc1ccc2sc(-c3c(N[C@@H]4CCCNC4)nc(N4CCOCC4)[nH]c3=O)nc2c1` [Example 341, 5-(5-methyl-1,3-benzothiazol-2-yl)-2-(morpholin-4-yl)-6-[[(3R)-piperidin-3-yl]amino]-3,4-dihydropyrimidin-4-one formic acid], the figure is 50 nM.
Same read-out and setting: next, `CC(C)(C)c1ccc2sc(-c3c(N[C@@H]4CCCNC4)nc(N4CCOCC4)[nH]c3=O)nc2c1` [Example 342, (R)-5-(5-tert-butylbenzo[d]thiazol-2-yl)-2-morpholino-6-(piperidin-3-ylamino)pyrimidin-4(3H)-one]: 1300 nM; `O=c1[nH]c(N2CCOCC2)nc(N[C@@H]2CCCNC2)c1-c1nc2cc(Cl)ccc2s1` [Example 343, (R)-5-(5-chlorobenzo[d]thiazol-2-yl)-2-morpholino-6-(piperidin-3-ylamino)pyrimidin-4(3H)-one]: 8 nM; `O=c1[nH]c(N2CCOCC2)nc(N[C@@H]2CCCNC2)c1-c1nc2cccc(C3CC3)c2s1` [Example 344, 5-(7-cyclopropyl-1,3-benzothiazol-2-yl)-2-(morpholin-4-yl)-6-[[(3R)-piperidin-3-yl]amino]-3,4-dihydropyrimidin-4-one trifluoroacetic acid]: 4500 nM.
Same read-out and setting: next, `O=c1[nH]c(N2CCOCC2)nc(N[C@@H]2CCCNC2)c1-c1nc2cc(Br)ccc2s1` [Example 345, 5-(5-bromo-1,3-benzothiazol-2-yl)-2-(morpholin-4-yl)-6-[[(3R)-piperidin-3-yl]amino]-3,4-dihydropyrimidin-4-one]: 19 nM.

The record behind these values is patent publication US9221809B2 (MERCK SHARP & DOHME CORP., priority 2011, dated 2015).
